Assay [1] deals with M. tuberculosis H37Rv growth inhibition, no glycerol. Description: H37Rv growth blockers, purified and synthesized samples, set 8, confirmation (AID 602437). The note with it: for IC50: measured here: IC50 replicates.
Test in assay [2]: as above
The note with it: M. tuberculosis H37Rv growth inhibition, no glycerol; at 100 µM (top of the series).

For 43 compounds, IC90, IC50 and inhibition results are on record in PubChem BioAssay AID602437 (Southern Research Specialized Biocontainment Screening …, 2012).

Several values for one entry are separate records, joined by “and”; a condition that tells them apart may be missing. Identical values can stand only once. Activity calls are given as the source filed them. The rule behind the calls is not given here.

Usually IC90 stands for the concentration needed for an effect of 90%. The term IC50 denotes the concentration that gives 50% inhibition. Higher therefore signals lower potency. Turning to `O=C(c1ccc(CNc2c(N3CCOCC3)c(=O)c2=O)cc1)N1CC=C(c2ccccc2)CC1`, in assay [1], the concentration for an effect of 90% (IC90) was 8.36 µM and the concentration for half-maximal inhibition (IC50) is 1.71 µM. For `COC(=O)CSc1ncnc2c1cnn2-c1ccc(C)cc1C`, in that order: 3.71 µM and 2.78 µM.

Consider `O=C(c1ccc(CNc2c(N3CCCC3)c(=O)c2=O)cc1)N1CCN(c2ccccc2)CC1`, for which the IC50 in assay [1] came to 70.2 µM. In other words, the double-digit micromolar range. The same measure, in the same setting: as for `CC1CCCN(C(=O)C2CCC(CNc3c(N4CCCCC4)c(=O)c3=O)CC2)C1` (stereo not given), the figure is 34.9 µM. Take `O=C(CSc1nc2ccccc2c(=O)[nH]1)NC1CCOCC1`: in assay [1], the IC90 is 33.8 µM and the half-maximal inhibitory concentration (IC50) turned out to be 20.5 µM. Consider `O=C(c1ccc(CNc2c(N3CCOCC3)c(=O)c2=O)cc1)N1CCN(c2ccccc2)CC1`, for which the IC50 in assay [1] came to 3.8 µM. That is a single-digit micromolar value. With `CCC(C)NC(=O)CSc1nc2ccccc2c(=O)[nH]1` (stereo not given), in assay [1], the 90% effect concentration (IC90) is 7.63 µM and the half-maximal inhibitory concentration (IC50) came to 4.95 µM.

As for `O=C(c1ccc(CNc2c(N3CCCC3)c(=O)c2=O)cc1)N1CCC(c2ccccc2)CC1`, in assay [1], the IC50 amounted to 76.1 µM.

Consider `O=C(c1ccc(CNc2c(N3CCCC3)c(=O)c2=O)cc1)N1CC=C(c2ccccc2)CC1`, for which the IC50 in assay [1] was 4.52 µM and 4.4 µM. On the same count and under the same terms, as for `CC1CC(C)CN(C(=O)C2CCC(CNc3c(N4CCCCC4)c(=O)c3=O)CC2)C1` (stereo not given), the figure is 7.79 µM and 24.7 µM. What is called inhibition is the change of the read-out against control, counted positive when it falls. Turning to `COCCNC(=O)CSc1nc2ccccc2c(=O)[nH]1`, the inhibition in assay [2] is -10.3% (inactive).

For the compound `O=C(NCc1ccc(C(=O)N2CCN(c3ccccc3)CC2)cc1)NC1CCCCC1`, in assay [2], the inhibition was 2.51% (inactive). On to `COc1ccc(NC(=O)NCc2ccc(C(=O)N3CCC(c4ccccc4)CC3)cc2)cc1`, for which the inhibition in assay [2] is 14% (inactive). In the case of `CC(C)CCNC(=O)CSc1nc2ccccc2c(=O)[nH]1`, in assay [1], the concentration for an effect of 90% (IC90) is 1.01 µM and the half-maximal inhibitory concentration (IC50) amounted to 0.651 µM. Regarding `COc1ccc(N2CCN(C(=O)c3ccc(CNc4c(N5CCOCC5)c(=O)c4=O)cc3)CC2)cc1`, in assay [1], the IC50 is 8.95 µM and 8.65 µM. As to `Cc1cccc(N2CCN(C(=O)c3ccc(CNc4c(N5CCC(C)CC5)c(=O)c4=O)cc3)CC2)c1C`, in assay [1], the 90% effect concentration (IC90) was 56.9 µM and the half-inhibitory concentration (IC50) turned out to be 42.1 µM. In turn, `CC(C)CCNC(=O)CSc1nc2c(c(=O)[nH]1)CCCCC2` yielded an IC50 in assay [1] of 99.2 µM. For `O=C(CSc1nc2c(c(=O)[nH]1)CCCC2)NC1CCCCC1`, in assay [1], the IC90 is 3.45 µM and the IC50 came to 2.3 µM. In the case of `CC(=O)c1ccc(NC(=O)c2ccc(CNc3c(N4CCOCC4)c(=O)c3=O)cc2)cc1`, the IC50 in assay [1] worked out at 63.7 µM.

As for `CC1CCN(C(=O)c2ccc(CNc3c(N4CCCC4)c(=O)c3=O)cc2)CC1`, in assay [1], the IC50 came out at 10.1 µM.

In the case of `COc1ccc(N2CCN(C(=O)c3ccc(CNC(=O)NCc4ccc(Cl)cc4)cc3)CC2)cc1`, in assay [2], the inhibition is 2.39% (inactive). The compound `O=C(c1ccc(CNc2c(N3CCCC3)c(=O)c2=O)cc1)N1CCc2ccccc2C1` displayed a 50% inhibitory concentration (IC50) in assay [1] of 7.79 µM. The same measure, in the same setting: as for `O=C(C1CCC(CNc2c(N3CCCCC3)c(=O)c2=O)CC1)N1CCCCC1` (stereo not given), the figure is 27.5 µM.

As for `O=C(NCc1ccc(C(=O)N2CCC(c3ccccc3)CC2)cc1)Nc1ccc(Cl)cc1`, in assay [1], the IC90 is 92.5 µM and the half-maximal inhibitory concentration (IC50) was 72.2 µM. In the same order, the values of `CCOC(=O)CSc1ncnc2c1cnn2-c1ccc(C)cc1C` are 4.58 µM and 2.64 µM. For `Cc1cccc(N2CCN(C(=O)c3ccc(CNc4c(N5CCC(C)CC5)c(=O)c4=O)cc3)CC2C)c1` (stereo not given), in that order: 46.3 µM and 27.7 µM. As for `CCOC(=O)N1CCC(Nc2c(Nc3cccc(CC)c3)c(=O)c2=O)CC1`, the 50% inhibitory concentration (IC50) in assay [1] is 36.5 µM.

Take `COC(=O)C(Cc1ccccc1)NC(=O)CSc1nc2ccccc2c(=O)[nH]1` (stereo not given): the inhibition in assay [2] was 2.32% (inactive). In assay [1], `CC(C)OC(=O)CSc1ncnc2c1cnn2-c1ccccc1` displayed an IC50 of 12 µM.

With `CCOC(=O)CSc1ncnc2c1cnn2-c1ccccc1`, in assay [1], the IC90 was 9.98 µM and the IC50 stood at 4.02 µM. With `CCOc1ccc(NC(=O)c2ccc(CNc3c(N4CCCC4)c(=O)c3=O)cc2)cc1`, the inhibition in assay [2] is -0.36% (inactive). Compound `O=C(NCCc1ccc(Cl)cc1)C1CCC(CNc2c(N3CCCCC3)c(=O)c2=O)CC1` (stereo not given) registered an IC50 in assay [1] of 17.6 µM. As to `O=C(CSc1nc2ccccc2c(=O)[nH]1)NC1CCCCC1`, in assay [1], the IC90 is < 0.27 µM and the IC50 came to 0.204 µM.

In the case of `CC1CCCN(C(=O)c2ccc(CNc3c(N4CCCCC4)c(=O)c3=O)cc2)C1` (stereo not given), the IC50 in assay [1] was found to be 5.73 µM. This lies in the single-digit micromolar range. Take `O=C(NCc1ccc(C(=O)N2CCC(c3ccccc3)CC2)cc1)NC1CCCCC1`: in assay [1], the IC90 was 86.4 µM and the IC50 was 67.7 µM. In the case of `CC1CC(C)CN(C(=O)c2ccc(CNc3c(N4CCCC4)c(=O)c3=O)cc2)C1` (stereo not given), the IC50 in assay [1] was found to be 12.8 µM. The same measure, in the same setting: as for `O=C(c1ccc(CNc2c(N3CCOCC3)c(=O)c2=O)cc1)N1CCC(c2ccccc2)CC1`, the figure is 3.56 µM. As to `COc1ccc(N2CCN(C(=O)c3ccc(CNc4c(N5CCCC(C)C5)c(=O)c4=O)cc3)CC2)cc1` (stereo not given), in assay [1], the IC90 was 41.4 µM and the 50% inhibitory concentration (IC50) stood at 25.4 µM. As to `O=C(CSc1nc2c(c(=O)[nH]1)CCC2)NC1CCCCC1`, in assay [1], the concentration for an effect of 90% (IC90) was 3.23 µM and the half-inhibitory concentration (IC50) is 2.24 µM. Consider `O=C(NCCc1ccc(Cl)cc1)c1ccc(CNc2c(N3CCOCC3)c(=O)c2=O)cc1`, for which, in assay [1], the half-maximal inhibitory concentration (IC50) is 5.66 µM and 14.4 µM.

Take `CC1CCCN(c2c(NCc3ccc(C(=O)N4CC=C(c5ccccc5)CC4)cc3)c(=O)c2=O)C1` (stereo not given): in assay [1], the IC90 is 9.7 µM and the IC50 came out at 7.72 µM. On to `O=C(CSc1nc2c(c(=O)[nH]1)CN(Cc1ccccc1)CC2)NC1CCCCC1`, for which the inhibition in assay [2] is -4.57% (inactive). In the case of `CC(C)CCNC(=O)CSc1nc2c(c(=O)[nH]1)CCCC2`, in assay [1], the IC90 is 6.58 µM and the half-inhibitory concentration (IC50) came to 4.43 µM.
